Laboratory results from PubChem BioAssay AID1996.
Values after ≈ are worked out from the molar mass of the structure shown.

Conditions: buffer; pH 7.4; 200.0 µM

SMILES | solubility kinetic [µg/mL]
COc1ccc(Nc2nc(N)c(C(=O)c3ccc(F)cc3)s2)cc1 | 5.2 (≈ 15.1 µM)
CN(C)C(CNc1ncnc2ccccc12)c1c(F)cccc1Cl (stereo not given) | 49.4 (≈ 143 µM)
O=C(/C=C/c1ccc(F)cc1)N1CCCc2ccccc21 | 18.5 (≈ 65.8 µM)
Cc1cc(C)n(CCCNC(=O)c2ccc(C)o2)n1 | > 39.2
CCOC(=O)c1cnc(COc2ccc(OC)cc2)[nH]c1=O | 44.7 (≈ 147 µM)
O=[N+]([O-])c1cc(Cl)ccc1NCCc1ccccn1 | 28.7 (≈ 103 µM)
Cc1ccc(NC(=O)CN2C(=O)NC3(CCCc4ccccc43)C2=O)c(Cl)c1 (stereo not given) | 47 (≈ 118 µM)
COC(=O)c1ccc(C(=O)Nc2nc3cc(N)c(C)cc3s2)cc1 | < 0.2
CCCc1cc(=O)[nH]c(SCC(=O)NC2CC2)n1 | > 40.1
CCOC(=O)c1[nH]c(=O)[nH]c1CNc1ccccc1C#N | > 42.9
COc1ccc(OC)c(C(=O)Cn2cnc3ccccc3c2=O)c1 | 0.9 (≈ 2.77 µM)
O=C(O)[C@H](Cc1c[nH]c2ccccc12)Nc1ncccc1[N+](=O)[O-] | > 48.9
Cc1ccc(S(=O)(=O)NCc2c(-c3ccccc3)noc2C)cc1 | 40.9 (≈ 119 µM)
CCNC(=S)NCCC1=c2ccccc2=N/C1=C\c1c(O)n(C)c(=O)n(C)c1=O | 19.3 (≈ 46.7 µM)
O=C1C=C(NCCOC23CC4CC(CC(C4)C2)C3)C2(CCCCC2)O1 | 4 (≈ 11.6 µM)
CN(CC(=O)NCCCn1ccnc1)S(=O)(=O)c1ccc(Cl)cc1 | > 55.6
Cn1cc(C(O)CN2CCCCC2)c2ccccc21 (stereo not given) | 38.1 (≈ 147 µM)
COC(=O)c1[nH]c2ccccc2c1Sc1ccccc1 | 0.9 (≈ 3.18 µM)
CC(C)CC(=O)c1c[nH]c(C(=O)NCc2cccnc2)c1 | 30.9 (≈ 108 µM)
COc1ccc([N+](=O)[O-])cc1NC(=O)CCC(=O)c1cccs1 | 3.8 (≈ 11.4 µM)
O=C(NCCO)C1COc2ccccc2O1 (stereo not given) | > 33.5
O=C(Nc1nc2ccccc2n1CCN1CCOCC1)c1ccccc1 | 51.4 (≈ 147 µM)

SMILES | solubility kinetic [µg/mL]
CC1CCC(NC(=O)CCNC(=O)c2ccccc2)CC1 (stereo not given) | > 43.3
COc1ccc(/C=C2/N=C(SC)NC2=O)cc1OC | 10.1 (≈ 36.3 µM)
CCCCCC1CCC(C(=O)NCCN2CCOCC2)CC1 (stereo not given) | 35.6 (≈ 115 µM)
Cc1nc2c3c(sc2c(=O)[nH]1)NC(=O)CC3c1ccccc1Cl (stereo not given) | 1.5 (≈ 4.34 µM)
COc1ccc(C(C)=O)cc1COC(=O)[C@H](Cc1ccccc1)NC(=O)c1ccco1 | 8 (≈ 19 µM)
Cn1c(Br)nc2c1c(=O)n(Cc1ccccc1)c(=O)n2C | 46.1 (≈ 132 µM)
CC1CCC2(CC1)NC(=O)N(CC(=O)NC1CCCCC1C)C2=O (stereo not given) | > 50.3
COc1ccc(/C=C/C(=O)Nc2ccccc2F)cc1S(=O)(=O)N1CCOCC1 | 37.5 (≈ 89.2 µM)
NC(=O)C1CCN(CC(O)CSc2ccccc2)CC1 (stereo not given) | > 44.2
Cc1ccc(S(=O)(=O)Nc2cc3c4c(c2)CC(=O)N4CCC3)cc1 | 8.6 (≈ 25.1 µM)
COc1ccc([N+](=O)[O-])cc1NS(=O)(=O)c1cccc(C(=O)NCCCN2CCCC2=O)c1 | > 71.5
CS(=O)(=O)N1CCN(C(=O)Cc2ccc([N+](=O)[O-])cc2)CC1 | 49 (≈ 150 µM)
Clc1ccc(-c2csc(-c3cccnc3)n2)s1 | 0.7 (≈ 2.51 µM)
CN(C(=S)Nc1ccc(SC(F)F)cc1)c1ccc(O)cc1 | > 51.1
Cc1ccsc1-c1cc(C(=O)O)c2c(ccc3ccccc32)n1 | > 47.9
COC(=O)Cn1c2ccccc2c2nc3ccccc3nc21 | 0.2 (≈ 0.687 µM)
COc1ccc(OC)c(C2NC(=O)CCC2[N+](=O)[O-])c1 (stereo not given) | 40.1 (≈ 143 µM)
COc1ccc2nc(/N=C/c3cccc(OC)c3O)sc2c1 | > 47.2
O=Cc1cn(CC(=O)N2CCCCCC2)c2ccccc12 | > 42.7
Cl.O=C(NC1CCCCC1)N1CCNCC1 | > 37.2
C=CCn1c(SCC(=O)N(C)C)nc2cc(C(=O)O)ccc2c1=O | > 52.1
Cc1cccc(NS(=O)(=O)c2cc(Cl)ccc2Cl)n1 | > 47.6

SMILES | solubility kinetic [µg/mL]
Cc1cccc(Nc2nc(N)c([N+](=O)[O-])c(NCCO)n2)c1 | 19.8 (≈ 65.1 µM)
CC(=O)c1ccc(NC(=O)CCNC(=O)c2ccccc2Cl)cc1 | 48.8 (≈ 142 µM)
COc1ccc(/C=C/C(=O)N[C@H](C(=O)O)C(C)C)cc1 | > 41.6
COc1cc(CC(=O)OCC(=O)Nc2ccc(N(C)C)cc2)cc(OC)c1OC | > 60.4
Cc1cc2ncc(-c3cccs3)nc2cc1C | < 0.3
Cc1ccccc1NC(=O)Nc1ccc2c(c1)OCO2 | 0.5 (≈ 1.85 µM)
CSc1ccc(S(=O)(=O)NCCCn2ccnc2)cc1 | > 46.7
CN=CC1=C(O)C(C(=O)OC)C(C)(C)CC1=O (stereo not given) | > 35.9
O=C(Nc1cccc(F)c1)Nc1cccc(Cl)c1 | 2 (≈ 7.56 µM)
COc1ccc(Nc2ccc([N+](=O)[O-])cc2[N+](=O)[O-])cc1 | 1.5 (≈ 5.19 µM)
O=C(NCCCCc1ccccc1)Nc1ccc(F)cc1F | 0.3 (≈ 0.986 µM)
CCOc1ncccc1C(=O)OCC(=O)NCc1ccc2c(c1)OCO2 | > 53.8
CCOC(=O)CSC1=NN2CCS(=O)(=O)N=C2S1 | > 46.4
O=C(O)c1cccc(-n2c(O)c(C=C3N=c4ccccc4=N3)sc2=S)c1 | > 57.2
COc1cc([N+](=O)[O-])ccc1Nc1nc(C)cc(C)n1.Cl | 0.5
CC(C)Oc1cccc(C(=O)C2CCCN(C3CCOCC3)C2)c1 (stereo not given) | 31 (≈ 93.5 µM)
CCOc1ccc2oc(-c3ccccc3)c(C(N)=O)c2c1 | < 0.6
CC(C)N(Cc1nc(-c2ccccc2)no1)C(=O)C(Cl)(Cl)Cl | 5.9 (≈ 16.3 µM)
Cc1ccccc1N1C(=O)CC2(CCCC2)CC1=O | 37.2 (≈ 145 µM)
Cc1ccc(C(=O)OCC(=O)c2ccc[nH]2)s1 | > 37.4
Clc1ccc2c(NCc3ccccn3)ccnc2c1 | > 40.5
O=C(c1cc2ccccc2oc1=O)N1CCCCCCC1 | 42.5 (≈ 149 µM)

SMILES | solubility kinetic [µg/mL]
COC(=O)CCCN=C1SCCN1Cc1ccccc1 | > 43.9
Cc1ccc(C(=O)O)cc1NCc1ccncc1 | > 36.3
Nc1nc(NCCO)nc(NC2CCCCC2)c1[N+](=O)[O-] | 39.1 (≈ 132 µM)
O=C(O)c1ccc(NCCc2ccc(Cl)cc2)c([N+](=O)[O-])c1 | 44.6 (≈ 139 µM)
COc1cc(NC(=O)c2ccc(S(=O)(=O)N(C)c3ccccc3OC)cc2)cc(OC)c1 | 4.5 (≈ 9.86 µM)
COc1ccc2nc(C)cc(Nc3ccc(N4CCN(C)CC4)cc3)c2c1 | > 54.4
CCS(=O)(=O)N1CCCC(C(=O)c2ccc(OC)cc2C)C1 (stereo not given) | 42 (≈ 129 µM)
COc1ccc(C2(C#N)CCC(=O)N2c2ccccc2)cc1 (stereo not given) | 40.9 (≈ 140 µM)
O=C(/C=C/c1cccc([N+](=O)[O-])c1)N1CCN(c2ccccn2)CC1 | 3.1 (≈ 9.16 µM)
Cc1cccc(Nc2c([N+](=O)[O-])ccc3nonc23)c1 | < 0.1
CSCCCNC(=S)Nc1ccc(N2CCOCC2)cc1 | > 48.8
O=C(NCCC(=O)N1CCN(c2ccccn2)CC1)c1ccc(Cl)cc1 | > 55.9
O=C(NCCNc1ccccc1[N+](=O)[O-])c1ccccc1F | > 45.5
CCOP(=O)(Cc1ccc(C#N)o1)OCC | > 36.5
Cc1ccc(NC(=O)NC2CCCCCCC2)cc1 | < 0.3
CCN(CC)C(=O)c1ccc(-c2cccs2)s1 | 32.6 (≈ 123 µM)
O=c1oc(-c2ccccc2F)nc2scc(-c3ccccc3)c12 | < 0.7
O=C(COC(=O)c1ccccc1Br)Nc1ccccc1F | 5.4 (≈ 15.3 µM)
O=C(COC(=O)c1cccc(F)c1)Nc1ccc(Cl)cn1 | 6.2 (≈ 20.1 µM)
